From patent US10745382B2 (BRISTOL-MYERS SQUIBB COMPANY, priority 2015, dated 2020) come the findings set out here.

pIC50: −log10 of the molar value.

The target in one test is T1, PD-1/PD-L1 (Homo sapiens, UniProt Q9NZQ7).
T1 construct: made in house; host or cells: HEK293T
T1 sequence (Q9NZQ7 with tags, fused parts or gaps): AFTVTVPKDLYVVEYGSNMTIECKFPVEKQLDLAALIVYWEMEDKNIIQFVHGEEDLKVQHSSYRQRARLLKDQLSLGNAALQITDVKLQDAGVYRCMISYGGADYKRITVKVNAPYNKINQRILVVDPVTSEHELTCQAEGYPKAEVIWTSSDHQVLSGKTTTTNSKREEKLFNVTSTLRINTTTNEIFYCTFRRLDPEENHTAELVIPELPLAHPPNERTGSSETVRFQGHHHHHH
Put plainly: PD-1/PD-L1 Homogenous Time-Resolved Fluorescence (HTRF) binding assay. Particulars: PD-L1-His 10 nM, PD-1-Ig 20 nM; numeric IC50; read-out: Range or IC50. The essentials:
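Compounds are tested for blocking the PD-1/PD-L1 interaction in dPBS supplemented with 0.1% BSA and 0.05% (v/v) Tween-20. Tagged proteins are detected with Eu-cryptate anti-Ig and APC anti-His at 1 and 20 nM final.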
A general note: Time-resolved FRET reads energy transfer from a long-lived donor to a nearby acceptor.
The term pIC50 denotes the IC50 on a negative log10 scale, so that one unit is a factor of ten. Turning to `Cc1c(COc2cc(OCCCN3CC[C@@H](O)C3)c(CN3CCCC[C@H]3C(=O)O)cc2Cl)cccc1-c1cccc(OCCCN2CC[C@@H](O)C2)c1C` [Example 1529, (S)-1-(5-chloro-2-(3-((R)-3-hydroxypyrrolidin-1-yl)propoxy)-4-((3′-(3-((R)-3-hydroxypyrrolidin-1-yl)propoxy)-2,2′-dimethyl-[1,1′-biphenyl]-3-yl)methoxy)benzyl)piperidine-2-carboxylic Acid], the pIC50 was 8.70. Same read-out and setting: for `Cc1c(COc2cc(OCc3cncc(C#N)c3)c(CN3CCCC[C@H]3C(=O)O)cc2Cl)cccc1-c1cccc(OCCCNC[C@H](O)CO)c1Cl` [Example 2007, (S)-1-(5-chloro-4-((2′-chloro-3′-(3-(((S)-2,3-dihydroxypropyl)amino)propoxy)-2-methyl-[1,1′-biphenyl]-3-yl)methoxy)-2-((5-cyanopyridin-3-yl)methoxy)benzyl)piperidine-2-carboxylic Acid] the value was 9.06.

The test is the same for the next values; noted with them: PD-L1-His 10 nM, PD-1-Ig 20 nM; value given as range class; read-out: Range or IC50.
As for `Cc1c(COc2cc(OCc3cncc(C#N)c3)c(CN3CCCC[C@H]3C(=O)O)cc2Cl)cccc1-c1cccc(O[C@@H](C)CCN2CC[C@@H](O)C2)c1Cl` [Example 1522, (S)-1-(5-chloro-4-((2′-chloro-3′-(((S)-4-((R)-3-hydroxypyrrolidin-1-yl)butan-2-yl)oxy)-2-methyl-[1,1′-biphenyl]-3-yl)methoxy)-2-((5-cyanopyridin-3-yl)methoxy)benzyl)piperidine-2-carboxylic acid], the pIC50 was 8.00 to 9.68. Regarding `Cc1c(COc2cc(OCc3cncc(C#N)c3)c(CN3CCCC[C@H]3C(=O)O)cc2Cl)cccc1-c1cccc(O[C@H](C)CCN2CC[C@@H](O)C2)c1Cl` [Example 1523], the pIC50 is 8.00 to 9.68.

`Cc1c(COc2cc(OCc3cncc(C#N)c3)c(CN[C@@](C)(CO)C(=O)O)cc2Cl)cccc1-c1cccc(O[C@H](C)CCN2CC[C@@H](O)C2)c1Cl` [Example 1524]: the pIC50 was 8.00 to 9.68. `Cc1c(COc2cc(OCc3cncc(C#N)c3)c(CN[C@@](C)(CO)C(=O)O)cc2Cl)cccc1-c1cccc(O[C@H](C)CCN2CC[C@@H](O)C2)c1C` [Example 1525, (S)-2-((5-chloro-2-((5-cyanopyridin-3-yl)methoxy)-4-((3′-(((R)-4-((R)-3-hydroxypyrrolidin-1-yl)butan-2-yl)oxy)-2,2′-dimethyl-[1,1′-biphenyl]-3-yl)methoxy)benzyl)amino)-3-hydroxy-2-methylpropanoic acid]: the pIC50 was 8.00 to 9.68. With `Cc1c(COc2cc(OCc3cncc(C#N)c3)c(CN3CCCC[C@H]3C(=O)O)cc2Cl)cccc1-c1cccc(O[C@H](C)CCN2CC[C@@H](O)C2)c1C` [Example 1526, (S)-1-(5-chloro-2-((5-cyanopyridin-3-yl)methoxy)-4-((3′-(((R)-4-((R)-3-hydroxypyrrolidin-1-yl)butan-2-yl)oxy)-2,2′-dimethyl-[1,1′-biphenyl]-3-yl)methoxy)benzyl)piperidine-2-carboxylic acid], the pIC50 was 8.00 to 9.68.

As to `Cc1ccc(OCCCN2CC[C@@H](O)C2)cc1-c1cccc(COc2cc(OCc3cncc(C#N)c3)c(CN3CCCC[C@H]3C(=O)O)cc2Cl)c1C` [Example 1528, (S)-1-(5-chloro-2-((5-cyanopyridin-3-yl)methoxy)-4-((5′-(3-((R)-3-hydroxypyrrolidin-1-yl)propoxy)-2,2′-dimethyl-[1,1′-biphenyl]-3-yl)methoxy)benzyl)piperidine-2-carboxylic acid], the pIC50 was 8.00 to 9.68. Consider `Cc1c(COc2cc(OCCCN3CC[C@@H](O)C3)c(CN[C@@H](CO)C(=O)O)cc2Cl)cccc1-c1cccc(OCCCN2CC[C@@H](O)C2)c1C` [Example 1530, (5-chloro-2-(3-((R)-3-hydroxypyrrolidin-1-yl)propoxy)-4-((3′-(3-((R)-3-hydroxypyrrolidin-1-yl)propoxy)-2,2′-dimethyl-[1,1′-biphenyl]-3-yl)methoxy)benzyl)-L-serine], for which the pIC50 is 8.00 to 9.68. In the case of `Cc1c(COc2cc(OCCCN3CC[C@@H](O)C3)c(CN[C@](C)(CO)C(=O)O)cc2Cl)cccc1-c1cccc(OCCCN2CC[C@@H](O)C2)c1C` [Example 1531, (R)-2-((5-chloro-2-(3-((R)-3-hydroxypyrrolidin-1-yl)propoxy)-4-((3′-(3-((R)-3-hydroxypyrrolidin-1-yl)propoxy)-2,2′-dimethyl-[1,1′-biphenyl]-3-yl)methoxy)benzyl)amino)-3-hydroxy-2-methylpropanoic Acid], the pIC50 is 8.00 to 9.68. As to `Cc1c(COc2cc(OCc3cncc(S(C)(=O)=O)c3)c(CNC(C)(CO)CO)cc2Cl)cccc1-c1cccc(OCCCN2CC[C@@H](O)C2)c1Cl` [Example 1532, (R)-2-((5-chloro-4-((2′-chloro-3′-(3-(3-hydroxypyrrolidin-1-yl)propoxy)-2-methyl-[1,1′-biphenyl]-3-yl)methoxy)-2-((5-(methylsulfonyl)pyridin-3-yl)methoxy)benzyl)amino)-2-methylpropane-1,3-diol], the pIC50 is 8.00 to 9.68. As to `Cc1c(COc2cc(OCc3cncc(S(C)(=O)=O)c3)c(CNC(C)(CO)CO)cc2Cl)cccc1-c1cccc(OCCCN2CC[C@@H](O)C2)c1C` [Example 1533, (R)-2-((5-chloro-4-((3′-(3-(3-hydroxypyrrolidin-1-yl)propoxy)-2,2′-dimethyl-[1,1′-biphenyl]-3-yl)methoxy)-2-((5-(methylsulfonyl)pyridin-3-yl)methoxy)benzyl)amino)-2-methylpropane-1,3-diol], the pIC50 was 8.00 to 9.68.

`Cc1c(COc2cc(OCc3cncc(C#N)c3)c(CN3CCC[C@@H]3CO)cc2Cl)cccc1-c1cccc(OCCCN2CCC[C@@H]2CO)c1F` [Example 1534, 5-((4-chloro-5-((2′-fluoro-3′-(3-((R)-2-(hydroxymethyl)pyrrolidin-1-yl)propoxy)-2-methyl-[1,1′-biphenyl]-3-yl)methoxy)-2-(((R)-2-(hydroxymethyl)pyrrolidin-1-yl)methyl)phenoxy)methyl)nicotinonitrile]: the pIC50 is 8.00 to 9.68. On the same count and under the same terms, then `Cc1c(COc2cc(OCc3cncc(C#N)c3)c(CN3CC[C@@H](O)C3)cc2Cl)cccc1-c1cccc(OCCCN2CC[C@@H](O)C2)c1Cl` [Example 2001, 5-((4-chloro-5-((2′-chloro-3′-(3-((R)-3-hydroxypyrrolidin-1-yl)propoxy)-2-methyl-[1,1′-biphenyl]-3-yl)methoxy)-2-(((R)-3-hydroxypyrrolidin-1-yl)methyl)phenoxy)methyl)nicotinonitrile], with 8.00 to 9.68. Take `Cc1c(COc2cc(OCc3cncc(C#N)c3)c(CO)cc2Cl)cccc1-c1cccc(OCCCN2CC[C@@H](O)C2)c1Cl` [Example 2002, (R)-5-((4-chloro-5-((2′-chloro-3′-(3-(3-hydroxypyrrolidin-1-yl)propoxy)-2-methyl-[1,1′-biphenyl]-3-yl)methoxy)-2-(hydroxymethyl)phenoxy)methyl)nicotinonitrile]: the pIC50 was 8.00 to 9.68. As for `Cc1c(COc2cc(OCc3cncc(C#N)c3)c(CNC[C@H](O)CO)cc2Cl)cccc1-c1cccc(OCCCNC[C@H](O)CO)c1Cl` [Example 2003, 5-((4-chloro-5-((2′-chloro-3′-(3-(((S)-2,3-dihydroxypropyl)amino)propoxy)-2-methyl-[1,1′-biphenyl]-3-yl)methoxy)-2-((((S)-2,3-dihydroxypropyl)amino)methyl)phenoxy)methyl)nicotinonitrile], the pIC50 is 8.00 to 9.68.

For the compound `Cc1c(COc2cc(OCc3cncc(C#N)c3)c(CN[C@@H](CO)C(=O)O)cc2Cl)cccc1-c1cccc(OCCCNC[C@H](O)CO)c1Cl` [Example 2004, (S)-2-((5-chloro-4-((2′-chloro-3′-(3-(((S)-2,3-dihydroxypropyl)amino)propoxy)-2-methyl-[1,1′-biphenyl]-3-yl)methoxy)-2-((5-cyanopyridin-3-yl)methoxy)benzyl)amino)-3-hydroxypropanoic Acid], the pIC50 is 8.00 to 9.68. Consider `Cc1c(COc2cc(OCc3cncc(C#N)c3)c(CO)cc2Cl)cccc1-c1cccc(OCCCNC[C@H](O)CO)c1Cl` [Example 2005, (S)-5-((4-chloro-5-((2′-chloro-3′-(3-((2,3-dihydroxypropyl)amino)propoxy)-2-methyl-[1,1′-biphenyl]-3-yl)methoxy)-2-(hydroxymethyl)phenoxy)methyl)nicotinonitrile], for which the negative logarithm of the IC50 (pIC50) was 8.00 to 9.68.

As to `Cc1c(COc2cc(OCc3cncc(C#N)c3)c(CN[C@@](C)(CO)C(=O)O)cc2Cl)cccc1-c1cccc(OCCCNC[C@H](O)CO)c1Cl` [Example 2006, (S)-2-((5-chloro-4-((2′-chloro-3′-(3-(((S)-2,3-dihydroxypropyl)amino)propoxy)-2-methyl-[1,1′-biphenyl]-3-yl)methoxy)-2-((5-cyanopyridin-3-yl)methoxy)benzyl)amino)-3-hydroxy-2-methylpropanoic Acid], the pIC50 is 8.00 to 9.68. For the compound `Cc1c(COc2cc(OCc3cncc(C#N)c3)c(CN[C@](C)(CO)C(=O)O)cc2Cl)cccc1-c1cccc(OCCCN2CCC[C@H](C(=O)O)C2)c1Cl` [Example 2008, (S)-1-(3-((3′-((4-((((R)-2-carboxy-1-hydroxypropan-2-yl)amino)methyl)-2-chloro-5-((5-cyanopyridin-3-yl)methoxy)phenoxy)methyl)-2-chloro-2′-methyl-[1,1′-biphenyl]-3-yl)oxy)propyl)piperidine-3-carboxylic Acid], the pIC50 was 8.00 to 9.68. `Cc1c(COc2cc(OCc3cncc(C#N)c3)c(CO)cc2Cl)cccc1-c1cccc(OCCCN2CCC[C@H](C(=O)O)C2)c1Cl` [Example 2009, (S)-1-(3-((2-chloro-3′-((2-chloro-5-((5-cyanopyridin-3-yl)methoxy)-4-(hydroxymethyl)phenoxy)methyl)-2′-methyl-[1,1′-biphenyl]-3-yl)oxy)propyl)piperidine-3-carboxylic Acid]: the pIC50 was 7.00 to 8.00.
